In ChEMBL document CHEMBL4507268 (2021):

Key:
[1] = biological target: MAP/microtubule affinity-regulating kinase 3 (Homo sapiens) (UniProt P27448); conditions: Compound concentration 1000.0 nM
[2] = biological target: Insulin receptor (Homo sapiens) (UniProt P06213); conditions: Compound concentration 1000.0 nM
[3] = biological target: Tyrosine-protein kinase receptor Tie-1 (Homo sapiens) (UniProt P35590); conditions: Compound concentration 1000.0 nM
[4] = biological target: BDNF/NT-3 growth factors receptor (Homo sapiens) (UniProt Q16620); conditions: Compound concentration 1000.0 nM
[5] = biological target: Non-receptor tyrosine-protein kinase TYK2 (Homo sapiens) (UniProt P29597); conditions: Compound concentration 1000.0 nM
[6] = biological target: Mitogen-activated protein kinase kinase kinase 10 (Homo sapiens) (UniProt Q02779); conditions: Compound concentration 1000.0 nM
[7] = biological target: T1, cGMP-dependent protein kinase 1 (Homo sapiens) (UniProt Q13976); conditions: Compound concentration 1000.0 nM
T1 sequence (whole entry): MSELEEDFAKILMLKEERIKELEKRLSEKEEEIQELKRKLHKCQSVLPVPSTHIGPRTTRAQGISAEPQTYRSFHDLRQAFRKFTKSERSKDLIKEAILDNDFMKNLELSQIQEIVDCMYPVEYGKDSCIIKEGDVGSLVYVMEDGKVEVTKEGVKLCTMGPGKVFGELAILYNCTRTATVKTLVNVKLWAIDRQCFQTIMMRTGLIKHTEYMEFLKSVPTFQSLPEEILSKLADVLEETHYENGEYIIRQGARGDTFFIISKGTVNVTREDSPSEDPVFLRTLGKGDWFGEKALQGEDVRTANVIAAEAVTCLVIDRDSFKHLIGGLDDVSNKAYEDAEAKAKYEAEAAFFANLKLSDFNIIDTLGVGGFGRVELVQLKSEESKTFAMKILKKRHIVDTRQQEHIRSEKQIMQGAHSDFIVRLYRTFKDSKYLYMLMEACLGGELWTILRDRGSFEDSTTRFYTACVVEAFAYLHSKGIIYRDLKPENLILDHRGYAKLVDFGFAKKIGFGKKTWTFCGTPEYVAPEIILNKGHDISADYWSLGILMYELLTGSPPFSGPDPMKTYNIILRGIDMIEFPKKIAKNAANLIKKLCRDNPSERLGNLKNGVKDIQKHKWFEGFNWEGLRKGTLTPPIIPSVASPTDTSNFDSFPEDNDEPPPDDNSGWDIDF

[8] = biological target: Megakaryocyte-associated tyrosine-protein kinase (Homo sapiens) (UniProt P42679); conditions: Compound concentration 1000.0 nM
[9] = biological target: T2, Serine/threonine-protein kinase Sgk2 (Homo sapiens) (UniProt Q9HBY8); conditions: Compound concentration 1000.0 nM
T2 sequence (whole entry): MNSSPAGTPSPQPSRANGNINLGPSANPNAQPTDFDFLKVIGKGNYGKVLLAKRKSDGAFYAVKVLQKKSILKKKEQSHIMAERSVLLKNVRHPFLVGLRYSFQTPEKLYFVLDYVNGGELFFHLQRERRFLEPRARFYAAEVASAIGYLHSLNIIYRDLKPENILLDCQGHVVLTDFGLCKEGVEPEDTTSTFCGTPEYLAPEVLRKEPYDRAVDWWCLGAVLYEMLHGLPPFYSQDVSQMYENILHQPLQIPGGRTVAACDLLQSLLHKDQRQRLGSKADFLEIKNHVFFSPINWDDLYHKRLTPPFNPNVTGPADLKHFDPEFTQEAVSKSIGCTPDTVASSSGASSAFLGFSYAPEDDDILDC

[10] = biological target: Tyrosine-protein kinase CSK (Homo sapiens) (UniProt P41240); conditions: Compound concentration 1000.0 nM
[11] = biological target: Cyclin-dependent kinase-like 3 (Homo sapiens) (UniProt Q8IVW4); conditions: Compound concentration 1000.0 nM
[12] = tested on: Tyrosine-protein kinase ABL1 (Homo sapiens), P00519 [F317L]; conditions: Compound concentration 1000.0 nM
[13] = biological target: Mitogen-activated protein kinase kinase kinase kinase 4 (Homo sapiens) (UniProt O95819); conditions: Compound concentration 1000.0 nM
[14] = biological target: Serine/threonine-protein kinase PAK 5 (Homo sapiens) (UniProt Q9P286); conditions: Compound concentration 1000.0 nM
[15] = biological target: Insulin receptor-related protein (Homo sapiens) (UniProt P14616); conditions: Compound concentration 1000.0 nM
[16] = biological target: Muscarinic acetylcholine receptor M2 (Homo sapiens) (UniProt P08172); conditions: Compound concentration 10.0 uM
[17] = biological target: Activin receptor type-1-like (Homo sapiens) (UniProt P37023); conditions: Compound concentration 1000.0 nM
[18] = biological target: Calcium/calmodulin-dependent protein kinase type 1 (Homo sapiens) (UniProt Q14012); conditions: Compound concentration 1000.0 nM
[19] = biological target: Protein-tyrosine kinase 6 (Homo sapiens) (UniProt Q13882); conditions: Compound concentration 1000.0 nM
[20] = biological target: Mitogen-activated protein kinase kinase kinase 6 (Homo sapiens) (UniProt O95382); conditions: Compound concentration 1000.0 nM
[21] = biological target: T3, Serine/threonine-protein kinase 3 (Homo sapiens) (UniProt Q13188); conditions: Compound concentration 1000.0 nM
T3 sequence (whole entry): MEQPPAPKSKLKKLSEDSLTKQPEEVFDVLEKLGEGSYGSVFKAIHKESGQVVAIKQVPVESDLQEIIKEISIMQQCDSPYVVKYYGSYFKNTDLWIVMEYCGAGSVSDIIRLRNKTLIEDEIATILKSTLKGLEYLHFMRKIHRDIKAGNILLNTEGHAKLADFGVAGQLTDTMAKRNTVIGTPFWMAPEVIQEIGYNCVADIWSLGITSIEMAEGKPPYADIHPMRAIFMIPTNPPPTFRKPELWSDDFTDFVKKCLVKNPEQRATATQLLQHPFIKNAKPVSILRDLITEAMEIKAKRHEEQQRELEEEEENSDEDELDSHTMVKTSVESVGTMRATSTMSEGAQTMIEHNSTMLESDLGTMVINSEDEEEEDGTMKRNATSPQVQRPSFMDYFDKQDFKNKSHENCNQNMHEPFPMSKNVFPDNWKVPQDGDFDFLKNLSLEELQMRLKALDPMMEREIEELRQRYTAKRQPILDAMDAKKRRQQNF

[22] = biological target: 3-phosphoinositide-dependent protein kinase 1 (Homo sapiens) (UniProt O15530); conditions: Compound concentration 1000.0 nM
[23] = biological target: Serine/threonine-protein kinase pim-1 (Homo sapiens) (UniProt P11309); conditions: Compound concentration 1000.0 nM
[24] = biological target: Cyclin-dependent kinase 11B (Homo sapiens) (UniProt P21127); conditions: Compound concentration 1000.0 nM
[25] = biological target: Dual specificity testis-specific protein kinase 1 (Homo sapiens) (UniProt Q15569); conditions: Compound concentration 1000.0 nM

Tyrosine-protein kinase ABL1 (Homo sapiens), P00519 [F317L], sequence (P00519 whole entry F317L): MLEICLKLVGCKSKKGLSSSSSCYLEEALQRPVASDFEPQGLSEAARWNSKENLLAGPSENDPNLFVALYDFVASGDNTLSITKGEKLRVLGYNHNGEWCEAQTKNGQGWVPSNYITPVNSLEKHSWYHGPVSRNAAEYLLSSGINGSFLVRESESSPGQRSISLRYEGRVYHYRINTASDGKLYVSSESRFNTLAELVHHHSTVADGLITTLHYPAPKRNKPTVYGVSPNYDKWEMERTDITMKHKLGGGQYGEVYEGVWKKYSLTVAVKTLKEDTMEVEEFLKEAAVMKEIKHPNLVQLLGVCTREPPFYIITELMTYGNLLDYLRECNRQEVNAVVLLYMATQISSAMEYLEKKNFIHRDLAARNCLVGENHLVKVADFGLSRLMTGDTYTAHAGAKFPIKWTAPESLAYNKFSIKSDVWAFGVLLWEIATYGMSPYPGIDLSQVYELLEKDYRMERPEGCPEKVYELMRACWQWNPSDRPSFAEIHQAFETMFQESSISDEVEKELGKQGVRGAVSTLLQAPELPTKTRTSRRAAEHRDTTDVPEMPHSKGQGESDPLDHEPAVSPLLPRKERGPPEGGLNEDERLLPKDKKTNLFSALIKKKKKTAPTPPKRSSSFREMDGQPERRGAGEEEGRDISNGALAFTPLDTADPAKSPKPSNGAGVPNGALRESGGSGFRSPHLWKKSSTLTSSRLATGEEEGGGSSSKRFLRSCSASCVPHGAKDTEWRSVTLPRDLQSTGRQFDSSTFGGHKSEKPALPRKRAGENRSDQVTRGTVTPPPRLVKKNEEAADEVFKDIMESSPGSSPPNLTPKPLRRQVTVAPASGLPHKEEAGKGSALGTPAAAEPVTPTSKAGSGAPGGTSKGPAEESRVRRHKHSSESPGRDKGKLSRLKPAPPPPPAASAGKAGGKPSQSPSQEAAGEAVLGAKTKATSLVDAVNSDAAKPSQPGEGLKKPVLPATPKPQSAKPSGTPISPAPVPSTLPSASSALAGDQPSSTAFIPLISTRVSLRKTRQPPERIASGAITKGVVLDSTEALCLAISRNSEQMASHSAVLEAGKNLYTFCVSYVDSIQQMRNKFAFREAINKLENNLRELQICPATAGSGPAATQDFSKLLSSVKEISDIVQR
Mitogen-activated protein kinase kinase kinase 6 (Homo sapiens), sequence (O95382 whole entry): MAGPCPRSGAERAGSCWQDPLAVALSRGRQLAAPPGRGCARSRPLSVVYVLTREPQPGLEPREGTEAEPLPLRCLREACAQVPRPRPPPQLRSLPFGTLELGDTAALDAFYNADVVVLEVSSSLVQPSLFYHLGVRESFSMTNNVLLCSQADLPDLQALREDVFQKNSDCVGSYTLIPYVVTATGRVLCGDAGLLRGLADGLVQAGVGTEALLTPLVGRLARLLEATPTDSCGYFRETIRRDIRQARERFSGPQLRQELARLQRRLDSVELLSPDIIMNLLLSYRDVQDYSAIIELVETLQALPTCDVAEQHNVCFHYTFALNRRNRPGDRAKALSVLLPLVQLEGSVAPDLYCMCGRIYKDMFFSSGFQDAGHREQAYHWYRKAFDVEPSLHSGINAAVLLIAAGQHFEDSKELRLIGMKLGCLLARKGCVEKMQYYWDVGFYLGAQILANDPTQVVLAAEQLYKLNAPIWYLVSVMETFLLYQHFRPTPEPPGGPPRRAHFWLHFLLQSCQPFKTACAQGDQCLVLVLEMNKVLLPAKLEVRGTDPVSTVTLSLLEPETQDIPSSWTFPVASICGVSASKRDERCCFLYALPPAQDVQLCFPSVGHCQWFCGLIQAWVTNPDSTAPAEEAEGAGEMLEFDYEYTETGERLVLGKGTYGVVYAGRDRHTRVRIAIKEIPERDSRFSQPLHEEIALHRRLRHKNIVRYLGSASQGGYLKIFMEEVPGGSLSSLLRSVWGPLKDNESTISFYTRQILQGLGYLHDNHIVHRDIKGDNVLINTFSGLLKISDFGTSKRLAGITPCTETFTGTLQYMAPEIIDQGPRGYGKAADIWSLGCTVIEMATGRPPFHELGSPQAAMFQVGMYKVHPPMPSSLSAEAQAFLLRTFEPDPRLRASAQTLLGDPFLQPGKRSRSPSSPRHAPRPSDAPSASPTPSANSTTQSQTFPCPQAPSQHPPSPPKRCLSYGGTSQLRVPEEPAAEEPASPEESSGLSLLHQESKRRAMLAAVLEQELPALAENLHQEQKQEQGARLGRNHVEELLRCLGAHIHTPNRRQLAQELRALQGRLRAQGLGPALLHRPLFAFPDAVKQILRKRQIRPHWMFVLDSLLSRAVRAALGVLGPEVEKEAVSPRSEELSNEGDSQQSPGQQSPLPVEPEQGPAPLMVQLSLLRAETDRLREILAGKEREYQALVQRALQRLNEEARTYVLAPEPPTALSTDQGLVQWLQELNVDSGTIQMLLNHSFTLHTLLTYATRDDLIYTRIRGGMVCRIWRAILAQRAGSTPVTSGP
Insulin receptor (Homo sapiens), sequence (P06213 28-758 limits assumed): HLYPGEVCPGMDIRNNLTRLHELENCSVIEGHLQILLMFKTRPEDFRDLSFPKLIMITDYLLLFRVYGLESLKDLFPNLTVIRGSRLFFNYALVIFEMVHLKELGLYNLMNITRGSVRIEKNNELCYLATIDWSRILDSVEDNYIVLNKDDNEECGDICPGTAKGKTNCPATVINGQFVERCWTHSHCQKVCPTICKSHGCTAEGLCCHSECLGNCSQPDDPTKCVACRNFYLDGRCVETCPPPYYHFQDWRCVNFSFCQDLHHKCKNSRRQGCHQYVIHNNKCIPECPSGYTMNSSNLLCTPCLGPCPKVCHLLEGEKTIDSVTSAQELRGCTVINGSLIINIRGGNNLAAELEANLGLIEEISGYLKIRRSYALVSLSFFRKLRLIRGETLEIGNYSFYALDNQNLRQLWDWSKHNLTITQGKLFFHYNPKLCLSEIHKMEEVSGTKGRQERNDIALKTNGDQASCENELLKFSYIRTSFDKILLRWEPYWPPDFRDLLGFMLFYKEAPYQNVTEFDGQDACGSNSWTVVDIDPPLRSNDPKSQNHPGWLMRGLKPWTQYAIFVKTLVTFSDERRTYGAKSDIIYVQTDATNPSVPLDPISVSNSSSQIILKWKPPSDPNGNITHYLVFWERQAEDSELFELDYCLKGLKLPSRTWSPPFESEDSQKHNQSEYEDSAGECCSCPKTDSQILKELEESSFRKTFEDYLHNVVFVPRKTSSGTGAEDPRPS
Insulin receptor (Homo sapiens), sequence (P06213 763-1382 limits assumed): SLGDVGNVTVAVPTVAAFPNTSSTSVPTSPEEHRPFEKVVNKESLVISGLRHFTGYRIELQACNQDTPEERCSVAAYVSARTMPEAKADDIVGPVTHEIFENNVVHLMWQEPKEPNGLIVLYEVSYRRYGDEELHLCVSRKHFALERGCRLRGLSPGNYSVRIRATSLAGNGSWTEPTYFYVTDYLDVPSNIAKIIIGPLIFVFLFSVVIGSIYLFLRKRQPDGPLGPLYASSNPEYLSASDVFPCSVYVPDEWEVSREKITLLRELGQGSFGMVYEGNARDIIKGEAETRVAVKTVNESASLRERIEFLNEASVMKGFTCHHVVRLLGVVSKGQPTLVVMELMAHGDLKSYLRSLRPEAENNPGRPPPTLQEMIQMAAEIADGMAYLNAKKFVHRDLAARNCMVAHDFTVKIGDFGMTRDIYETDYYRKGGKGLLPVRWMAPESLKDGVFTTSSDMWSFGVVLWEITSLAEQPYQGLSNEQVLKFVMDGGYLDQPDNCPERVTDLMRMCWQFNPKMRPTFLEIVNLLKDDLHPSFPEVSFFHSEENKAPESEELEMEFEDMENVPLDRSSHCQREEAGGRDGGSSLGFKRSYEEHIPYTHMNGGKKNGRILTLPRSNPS
Cyclin-dependent kinase 11B (Homo sapiens), sequence (P21127 whole entry): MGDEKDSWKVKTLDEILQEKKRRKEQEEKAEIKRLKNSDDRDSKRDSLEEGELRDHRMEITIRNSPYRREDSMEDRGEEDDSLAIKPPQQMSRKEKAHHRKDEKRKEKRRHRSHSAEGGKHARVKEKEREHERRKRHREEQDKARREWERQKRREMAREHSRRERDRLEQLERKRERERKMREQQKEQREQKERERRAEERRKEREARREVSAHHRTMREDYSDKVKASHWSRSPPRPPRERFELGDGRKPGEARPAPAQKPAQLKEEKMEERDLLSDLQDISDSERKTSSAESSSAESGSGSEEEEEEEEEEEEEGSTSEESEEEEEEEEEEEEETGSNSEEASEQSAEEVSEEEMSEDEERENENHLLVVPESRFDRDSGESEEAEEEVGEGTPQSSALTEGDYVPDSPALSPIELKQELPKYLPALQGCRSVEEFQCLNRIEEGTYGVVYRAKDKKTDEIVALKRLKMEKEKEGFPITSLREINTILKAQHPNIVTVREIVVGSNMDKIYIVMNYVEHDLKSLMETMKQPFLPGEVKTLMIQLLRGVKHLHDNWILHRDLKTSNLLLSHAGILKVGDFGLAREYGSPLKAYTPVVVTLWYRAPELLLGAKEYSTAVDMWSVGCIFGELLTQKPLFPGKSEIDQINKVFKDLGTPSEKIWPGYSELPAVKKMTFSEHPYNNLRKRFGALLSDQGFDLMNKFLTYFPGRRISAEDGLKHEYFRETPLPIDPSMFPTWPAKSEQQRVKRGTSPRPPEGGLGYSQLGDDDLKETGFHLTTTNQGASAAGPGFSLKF
Megakaryocyte-associated tyrosine-protein kinase (Homo sapiens), sequence (P42679 whole entry): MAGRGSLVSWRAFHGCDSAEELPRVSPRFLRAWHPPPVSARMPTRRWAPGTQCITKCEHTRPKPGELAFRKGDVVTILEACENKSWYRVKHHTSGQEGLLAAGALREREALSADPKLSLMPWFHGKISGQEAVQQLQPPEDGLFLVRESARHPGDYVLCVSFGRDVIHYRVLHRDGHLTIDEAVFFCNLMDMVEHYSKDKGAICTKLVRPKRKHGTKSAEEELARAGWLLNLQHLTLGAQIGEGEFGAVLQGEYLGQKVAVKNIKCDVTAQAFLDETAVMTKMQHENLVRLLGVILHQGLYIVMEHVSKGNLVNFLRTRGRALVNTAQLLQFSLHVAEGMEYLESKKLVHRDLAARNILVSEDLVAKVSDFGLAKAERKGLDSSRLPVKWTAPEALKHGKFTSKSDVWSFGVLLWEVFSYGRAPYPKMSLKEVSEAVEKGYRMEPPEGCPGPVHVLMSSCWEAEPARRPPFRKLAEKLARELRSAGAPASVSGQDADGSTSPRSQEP

Cc1nc(C2CCN(C(=O)c3ccc(OC(F)(F)F)cc3N)CC2)c2ncc(N3CCN(C)CC3)cc2n1 [BAY-693]
inactive: residual activity [1] 89% | residual activity [2] 93% | residual activity [3] 100% | residual activity [4] 100% | residual activity [5] 88% | residual activity [6] 100% | residual activity [7] 100% | residual activity [8] 100% | residual activity [9] 94% | residual activity [10] 100% | residual activity [11] 92% | residual activity [12] 97% | residual activity [13] 100% | residual activity [14] 99% | residual activity [15] 100% | inhibition [16] -1% | residual activity [17] 91% | residual activity [18] 100% | residual activity [19] 100% | residual activity [20] 100% | residual activity [21] 79% | residual activity [22] 93% | residual activity [23] 100% | residual activity [24] 87% | residual activity [25] 100%

CN1CCN(c2cnc3c(C4CCN(C(=O)c5ccc(OC(F)(F)F)cc5N)CC4)ncnc3c2)CC1 [BAY-885]
inactive: residual activity [1] 93% | residual activity [2] 88% | residual activity [3] 80% | residual activity [4] 100% | residual activity [5] 100% | residual activity [6] 100% | residual activity [7] 83% | residual activity [8] 100% | residual activity [9] 92% | residual activity [10] 100% | residual activity [11] 92% | residual activity [12] 100% | residual activity [13] 100% | residual activity [14] 100% | residual activity [15] 100% | inhibition [16] -0.56% | residual activity [17] 94% | residual activity [18] 100% | residual activity [19] 100% | residual activity [20] 100% | residual activity [21] 82% | residual activity [22] 85% | residual activity [23] 90% | residual activity [24] 82% | residual activity [25] 96%
